# Entries after “also recorded” stand apart in the source; their conditions may differ. Where two headings read alike, the source gives them in different places.
# What was measured:
# [1] = molecular target: T1, MC5R (Homo sapiens, UniProt P33032); assay: In vitro activity of MCR receptors, intracellular cAMP signal (HEK293T/MCR cell line), MC5R; assay type: cell-based; conditions: cAMP, HEK293T/MCR cell line; read-out: MC5R EC50
# T1 construct: expressed in transfected cells
# Procedure: (§1) Test purpose: to evaluate the agonistic effect of the compound on MCRs by detecting intracellular cAMP signal changes.
# (§2) Cells were resuspended with 1×PBS+500 μM IBMX. 10 μL of the cell suspension was added into a 384-well plate to be tested, and the cell concentration was adjusted to 1×10^4 cells per well for later use. A pre-prepared solution of the compound to be tested was added, and dimethyl sulfoxide of the same volume was added to blank control wells. The test plate was centrifuged at 300 rpm for 1 minute, incubated at 37° C. for 30 minutes, and added with 5 μL of cAMP-d2 and 5 μL of a CAMP-cry antibody detection reagent. The test plate was centrifuged at 300 rpm for 1 minute, and incubated at room temperature for 60 minutes. The test plate was placed in the Envision multifunctional microplate reader for reading, with a detection wavelength of 665/615 nm.
# [2] = Drug concentration in brain tissues of rats, oral gavage; assay type: in vivo; conditions: SD, rat, p.o. 20 mg/kg
# Procedure: 3.2 6 healthy SD rats of 6-9 weeks old were selected, and the test compound was administered by oral gavage (with a solvent of 50 mM citrate buffer solution, pH=5). Two animals were randomly selected at 0.5 hour, 1 hour and 4 hours after administration respectively, and plasma and brain tissue samples were collected for quantitative analysis of all biological samples using the LC-MS/MS method.
# [3] = molecular target: T2, MC3R (Homo sapiens, UniProt P41968); assay: In vitro activity of MCR receptors, intracellular cAMP signal (HEK293T/MCR cell line), MC3R; assay type: cell-based
# T2 construct: expressed in transfected cells
# T2 sequence (P41968 whole entry): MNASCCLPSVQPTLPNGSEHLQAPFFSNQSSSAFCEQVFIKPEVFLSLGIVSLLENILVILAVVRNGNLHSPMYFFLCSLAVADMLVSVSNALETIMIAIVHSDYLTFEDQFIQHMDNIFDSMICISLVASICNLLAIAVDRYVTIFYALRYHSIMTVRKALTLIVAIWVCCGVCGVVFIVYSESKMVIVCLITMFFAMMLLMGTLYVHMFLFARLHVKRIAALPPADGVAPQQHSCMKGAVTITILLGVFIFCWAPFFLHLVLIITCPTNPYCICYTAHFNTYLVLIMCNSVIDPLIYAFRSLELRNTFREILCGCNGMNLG
# Procedure: as §1
# as §2, with “minutes.” for “minutes. The test plate was placed in the Envision multifunctional microplate reader for reading, with a detection wavelength of 665/615 nm.”
# [4] = Pharmacokinetic parameters in rat plasma; assay type: in vivo, SD rats; conditions: SD
# Procedure: 4 healthy SD rats of 6-9 weeks old were selected and randomly divided into two groups, 2 rats in each group. One group was administered with the test compound via intravenous injection, with 5% DMSO+95% (a 10% HP-β-CD aqueous solution) as a solvent, and the other group was administered with the test compound by gavage, with a 50 mM citric acid buffer solution at pH=5 as a solvent. Plasma samples were collected from animals in both intravenous and intragastric groups at 0.083 hour, 0.25 hour, 0.5 hour, 1.0 hour, 2.0 hours, 4.0 hours, 6.0 hours, 8.0 hours and 24 hours after administration, respectively. Quantitative analysis of all biological samples was performed using an LC-MS/MS method, with WinNonlin™ Version 6.3 (Pharsight, Mountain View, CA) pharmacokinetic software, to calculate relevant pharmacokinetic parameters using a […] model linear logarithmic trapezoid method. AUCo-last represented an area under a plasma concentration time curve from a time point zero to a last time point where the concentration can be detected; p.o. represented oral administration; i.v. represented intravenous injection; T1/2 represented the half life; CL represented the clearance rate; Vd represented the apparent distribution volume; AUC0-last represented the area under the curve; Cmax represented the peak concentration; Tmax represented the peak time; and F % represented oral bioavailability.
# [5] = test system: MDR1; assay: In vitro MDCK-MDR1 permeability; assay type: in vitro ADME; conditions: dog, MDCK-MDR1, pH 7.4, MDR1-MDCKII monolayer, 2 μM, 150 minutes
# Procedure: (§3) MDR1-MDCKII cells (from the Netherlands Cancer Institute) were inoculated onto a 96-plate (from Corning) with a cell density of 2.5×10^5 cells/mL, and cultured for 4-7 days to form a co-polymeric cell monolayer. A Hank's equilibrium salt buffer (pH=7.40±0.05) containing 10 mM of 4-hydroxyethyl piperazine ethanesulfonic acid was used as a transport buffer. The bidirectional transport of the test compound at a concentration of 2 μM was tested, and the concentration of DMSO in the incubation system was controlled below 1%. After sample loading, the cell plate was placed at 37±1° C. for inoculation with 5% CO2 under a saturated humidity condition for 150 minutes. All samples were subjected to quantitative analysis using the LC-MS/MS method.
# (§4) The apparent permeability coefficient (Papp, cm/s), the efflux ratio, and the recovery rate were calculated using the following formula.
# (§5) The apparent permeability coefficient (Papp, cm/s) was calculated using the following formula: […]
# (§6) DC/dt was the cumulative concentration (μM/s) of the compound at the receiving end per unit time; Vr was the volume of the solution at the receiving end (the solution volumes at the top and base ends were 0.075 mL and 0.250 mL, respectively); A was the relative surface area of the cell monolayer (0.0804 cm^2); and C0 was the initial concentration (nM) of a test sample at the administration end or the peak area ratio of a control sample.
# (§7) The efflux ratio was calculated using the following formula: […]
# (§8) The recovery rate was calculated using the following formula: […]
# (§9) C0 was the initial concentration (nM) of the test sample at the administration end or the peak area ratio of the control sample; Vd was the volume of the administration end (0.075 mL on the top side and 0.250 mL on the base side); Cd and Cr were the final concentrations (nM) of the test sample at the administration end and the receiving end, or the peak area ratios of the control sample , respectively.
# [6] = test system: MDR1-MDCKII cells; assay: In vitro MDCK-MDR1 permeability; assay type: in vitro ADME; conditions: MDR1-MDCKII permeability and efflux rating
# Procedure: as §3, §4, §5, §6, §7, §8, §9
# T1 sequence (P33032 whole entry): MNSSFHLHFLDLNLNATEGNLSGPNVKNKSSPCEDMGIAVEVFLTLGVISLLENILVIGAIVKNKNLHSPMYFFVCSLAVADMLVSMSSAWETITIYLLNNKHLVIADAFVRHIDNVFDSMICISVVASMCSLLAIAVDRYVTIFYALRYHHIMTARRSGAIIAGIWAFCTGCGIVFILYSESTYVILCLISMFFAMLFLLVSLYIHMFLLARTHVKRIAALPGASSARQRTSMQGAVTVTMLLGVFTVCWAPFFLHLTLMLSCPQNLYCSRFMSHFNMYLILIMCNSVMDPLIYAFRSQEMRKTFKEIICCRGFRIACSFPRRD
compound,measurement,setting,value
"C[C@@H]1CN(C(=O)[C@@H]2CN(C3CCOCC3)C[C@H]2c2ccc(F)cc2F)C[C@H](C)N1c1ccc(F)cc1 (single isomer, unassigned) [Compound 7]",EC50,[1],> 10 µM
same,concentration at 0.5 h,"[2]; brain, 0.5 hour, read-out: Brain drug concentration",8600 nM
same,concentration at 1 h,"[2]; brain, 1 hour, read-out: Brain drug concentration",9680 nM
same,concentration at 4 h,"[2]; brain, 4 hours, read-out: Brain drug concentration",11400 nM
same,Kp uu at 0.5 h,"[2]; brain/plasma, 0.5 hour",1.5
same,Kp at 0.5 h,"[2]; brain/plasma, 0.5 hour, read-out: Brain-to-blood ratio",11
same,Kp uu at 1 h,"[2]; brain/plasma, 1 hour",1.5
same,Kp at 1 h,"[2]; brain/plasma, 1 hour, read-out: Brain-to-blood ratio",10.8
same,Kp uu at 4 h,"[2]; brain/plasma, 4 hours",1.3
same,Kp at 4 h,"[2]; brain/plasma, 4 hours, read-out: Brain-to-blood ratio",9.5
same,concentration at 0.5 h,"[2]; plasma, 0.5 hour, read-out: Plasma drug concentration",783 nM
same,concentration at 1 h,"[2]; plasma, 1 hour, read-out: Plasma drug concentration",899 nM
same,concentration at 4 h,"[2]; plasma, 4 hours, read-out: Plasma drug concentration",1200 nM
same,EC50,[3],4.21 µM
same,AUC(0-t),"[4]; iv, i.v. 2 mg/kg",0.897 µM·h
same,Vd,"[4]; iv, i.v. 2 mg/kg",8 L/kg
same,clearance,"[4]; iv, i.v. 2 mg/kg",73 mL/min/kg
same,half-life,"[4]; iv, i.v. 2 mg/kg",1.5 h
same,bioavailability,"[4]; p.o. 5 mg/kg, oral bioavailability",37%
same,AUC(0-t),"[4]; po, p.o. 5 mg/kg",0.796 µM·h
same,Cmax,"[4]; po, p.o. 5 mg/kg",195 nM
same,Tmax,"[4]; po, p.o. 5 mg/kg",1 h
same,"efflux ratio at 150 min, 2 μM",[5],0.98
same,"Papp A→B at 150 min, 2 μM",[5]; pH 7.40,13.5 ×10⁻⁶ cm/s
same,"Papp B→A at 150 min, 2 μM",[5]; pH 7.40,13.2 ×10⁻⁶ cm/s
same,Rating,[6],"High permeability,; also recorded: low efflux"

# — US20240238281A1, “PIPERAZINE DERIVATIVES AND APPLICATION THEREOF” (priority 2021, published 2024)
